Test results from publication PMC10501326, “A Phase I Study of the Pan-Notch Inhibitor CB-103 for Patients with Advanced Adenoid Cystic Carcinoma and Other Tumors” (Cancer Research Communications, 2023).
“And” between values parts separate entries of the source, which are not always exact repeats. Identical values can stand only once.

Legend:
[1] = Phase I/II safety and tolerability: DLTs and treatment-related adverse events (CTCAE v4.03); type: in vivo
Source text: The study was an open-label, nonrandomized, phase I/II dose-escalation study with planned expansion cohorts. […] Part B was a potential expansion phase at the MTD/RP2D to determine preliminary evidence of antitumor activity and to confirm safety among patients stratified by preselected cancer indications.
Part A was based on a two-parameter Bayesian logistic regression model (BLRM) to investigate safety and tolerability of sequentially enrolled dose cohorts of 3–6 patients. The first 2 participants of each cohort were enrolled in a staggered approach with at least 1 day apart between first dosing.
12-lead electrocardiograms and Holter safety monitoring with periodic cardiac imaging was employed. Efficacy assessments used RECIST v1.1 applied to CT/MRI scans performed at screening and every 8 weeks; or evaluated complete remission with complete hematologic recovery by National Comprehensive Cancer Network guideline criteria for T-ALL/T-LBL. Adherence to study drug administration was evaluated using both patient diaries and capsule counts.
Secondary endpoints included assessment of clinical benefit rate [CBR; defined as achieving complete and/or partial response and/or stable disease (SD) at prespecified benchmarks], duration of response, progression-free survival (PFS) and overall survival (OS), and plasma pharmacokinetics.
The SS was the primary population for all safety and efficacy analyses, except for determination of dose-DLT relationship.
Under this model, and accounting for dropouts and some additional patients enrolled to each cohort, approximately 55 patients were anticipated to enroll in dose escalation and approximately 45 patients in the confirmatory phase. […] All statistical analyses were analyzed using SAS v9.4 software.

[2] = set-up: method as in PMID 32601208; conditions: single agent and in combination with targeted and cytotoxic therapies; cited from earlier work
[3] = N = 79, per-patient, CTCAE v4.03

CC(C)(C)c1ccc(Oc2ccc(N)cn2)cc1 [CB-103]
Number of DLTs observed ([1]; 12 dose-escalation cohorts (n = 64)): Two | Recommended phase II dose (RP2D) ([1]; 5 days on, 2 days off weekly): 500 mg twice daily | N DLT ([1]; CH8 522 mg QD, N=4): 1 | N DLT ([1]; CH11 400 mg BID, 5/2, N=6): 1 | Grade 4 TRAE elevated lipase ([1]; N = 79): ^aThe two TRAEs classified as grade 4 were elevated lipase (one event) and elevated liver function tests (one event). | Grade 4 TRAE elevated liver function tests ([1]; N = 79): ^aThe two TRAEs classified as grade 4 were elevated lipase (one event) and elevated liver function tests (one event). | TRAE Anemia, any grade [1, 3]: 13 (16) N (%) | TRAE Anemia, grade 1–2 [1, 3]: 9 (11) N (%) | TRAE Anemia, grade 3 [1, 3]: 4 (5) N (%) | TRAE Any AE, any grade [1, 3]: 60 (76) N (%) | TRAE Any AE, grade 1–2 [1, 3]: 47 (60) N (%) | TRAE Any AE, grade 3 [1, 3]: 13 (16) N (%) | TRAE Any AE, grade 4 [1, 3]: 2 (3) N (%) | TRAE Blood and lymphatic system disorders, any grade [1, 3]: 13 (17) N (%) | TRAE Blood and lymphatic system disorders, grade 1–2 [1, 3]: 9 (11) N (%) | TRAE Blood and lymphatic system disorders, grade 3 [1, 3]: 4 (5) N (%) | TRAE Diarrhea, any grade [1, 3]: 10 (13) N (%) | TRAE Diarrhea, grade 1–2 [1, 3]: 10 (13) N (%) | TRAE Dyschromatopsia, any grade [1, 3]: 15 (19) N (%) | TRAE Dyschromatopsia, grade 1–2 [1, 3]: 15 (19) N (%) | TRAE Dyspepsia, any grade [1, 3]: 10 (13) N (%) | TRAE Dyspepsia, grade 1–2 [1, 3]: 10 (13) N (%) | TRAE Eye disorders, any grade [1, 3]: 37 (47) N (%) | TRAE Eye disorders, grade 1–2 [1, 3]: 36 (46) N (%) | TRAE Eye disorders, grade 3 [1, 3]: 1 (1) N (%) | TRAE Fatigue, any grade [1, 3]: 9 (11) N (%) | TRAE Fatigue, grade 1–2 [1, 3]: 9 (11) N (%) | TRAE Gastrointestinal disorders, any grade [1, 3]: 39 (49) N (%) | TRAE Gastrointestinal disorders, grade 1–2 [1, 3]: 38 (48) N (%) | TRAE Gastrointestinal disorders, grade 3 [1, 3]: 1 (1) N (%) | TRAE General disorders and administration site conditions, grade 1–2 [1, 3]: 9 (11) N (%) | TRAE General disorders and administration site conditions, grade 3 [1, 3]: 1 (1) N (%) | TRAE Laboratory investigations, any grade [1, 3]: 13 (16) N (%) | TRAE Laboratory investigations, grade 1–2 [1, 3]: 8 (10) N (%) | TRAE Laboratory investigations, grade 3 [1, 3]: 5 (6) N (%) | TRAE Nausea, any grade [1, 3]: 17 (22) N (%) | TRAE Nausea, grade 1–2 [1, 3]: 17 (22) N (%) | TRAE Skin and subcutaneous tissue disorders, any grade [1, 3]: 8 (10) N (%) | TRAE Skin and subcutaneous tissue disorders, grade 1–2 [1, 3]: 6 (8) N (%) | TRAE Skin and subcutaneous tissue disorders, grade 3 [1, 3]: 2 (3) N (%) | TRAE Vision blurred, any grade [1, 3]: 12 (15) N (%) | TRAE Vision blurred, grade 1–2 [1, 3]: 12 (15) N (%) | TRAE Visual impairment, any grade [1, 3]: 8 (10) N (%) | TRAE Visual impairment, grade 1–2 [1, 3]: 7 (9) N (%) | TRAE Visual impairment, grade 3 [1, 3]: 1 (1) N (%) | TRAE Vomiting, any grade [1, 3]: 9 (11) N (%) | TRAE Vomiting, grade 1–2 [1, 3]: 8 (10) N (%) | TRAE Vomiting, grade 3 [1, 3]: 1 (1) N (%) | Grade 3 or 4 TRAEs, number reported ([1]; SS population (n = 79)): 26 | Patients who interrupted or required dose adjustment ([1]; all patients): 32 patients (%) | DLT: patients with asymptomatic grade 3 elevation in gamma-glutamyl transferase leading to drug discontinuation ([1]; cohort 8 (552 mg daily dose)): 1 patient | DLT observed in cohort 11 ([1]; cohort 11 (400 mg twice daily, 5 days on and 2 off each week), dose interruption, continued at reduced dose): grade 3 visual impairment | MTD ([1]; dose escalation up to 500 mg twice daily 5/2): not reached | Resumed at the dose prior to interruption ([1]; in vivo): 81 % of the time | Deaths related to study treatment ([1]; n = 79): no drug-related deaths | Grade 3–4 TRAE anemia ([1]; n = 79): 7 events | Grade 3–4 TRAE elevated liver function tests ([1]; n = 79): 5 events | Grade 3–4 TRAE elevated serum amylase or lipase ([1]; n = 79): 3 events | Patients with grade 3–4 TRAEs ([1]; n = 79): 15 patients (%) and 15 (19%) patients (%) | Median duration of interruption for TRAEs ([1]; range: 1–14): 5 days | Anticancer activity [2]: potent anticancer activity
